{
  "source": "paper PMC3538728",
  "about": "(PLoS ONE, 2013)",
  "biological_target": "T1, γ-secretase (Homo sapiens, UniProt P49768)",
  "T1 construct": "γ-Secretase is composed of four subunits: Aph1, Pen2, glycosylated nicastrin, and endo-proteolyzed presenilin as the catalytic core; endogenous in cells; host or cells: HeLa S3 (ATCC CCL-2.2)",
  "T1 sequence (Q9NZ42 whole entry, other chains not shown)": "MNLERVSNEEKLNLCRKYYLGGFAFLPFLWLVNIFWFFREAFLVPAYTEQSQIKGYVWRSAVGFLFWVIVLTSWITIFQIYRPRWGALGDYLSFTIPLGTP",
  "T1 sequence (Q92542 34-709, other chains not shown, further chain)": "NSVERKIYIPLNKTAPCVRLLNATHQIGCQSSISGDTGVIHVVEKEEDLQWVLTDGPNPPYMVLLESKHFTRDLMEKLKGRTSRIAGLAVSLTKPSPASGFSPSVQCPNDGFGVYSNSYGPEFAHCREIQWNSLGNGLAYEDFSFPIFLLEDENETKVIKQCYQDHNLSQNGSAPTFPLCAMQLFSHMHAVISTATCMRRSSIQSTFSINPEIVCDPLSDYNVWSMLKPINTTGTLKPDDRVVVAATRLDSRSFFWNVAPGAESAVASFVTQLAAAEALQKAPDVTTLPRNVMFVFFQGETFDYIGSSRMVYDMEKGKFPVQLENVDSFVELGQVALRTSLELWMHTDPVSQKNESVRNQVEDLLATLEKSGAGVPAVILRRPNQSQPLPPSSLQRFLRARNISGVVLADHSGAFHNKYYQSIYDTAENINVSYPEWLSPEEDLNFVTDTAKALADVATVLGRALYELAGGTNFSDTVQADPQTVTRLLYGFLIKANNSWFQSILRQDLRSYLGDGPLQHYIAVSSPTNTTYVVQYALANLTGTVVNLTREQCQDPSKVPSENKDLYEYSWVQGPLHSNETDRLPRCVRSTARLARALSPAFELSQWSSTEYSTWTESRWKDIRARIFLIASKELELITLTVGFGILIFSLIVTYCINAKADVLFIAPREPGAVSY",
  "T1 sequence (Q96BI3 whole entry, other chains not shown, further chain)": "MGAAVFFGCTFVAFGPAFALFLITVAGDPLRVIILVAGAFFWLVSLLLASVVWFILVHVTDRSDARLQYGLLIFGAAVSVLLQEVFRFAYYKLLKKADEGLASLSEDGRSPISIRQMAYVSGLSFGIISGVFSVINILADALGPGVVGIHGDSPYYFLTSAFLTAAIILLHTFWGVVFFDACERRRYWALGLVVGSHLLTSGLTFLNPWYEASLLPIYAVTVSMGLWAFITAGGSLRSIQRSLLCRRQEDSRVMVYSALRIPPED",
  "test": "Aβ 1–40 secretion from HeLa cells in the presence of DAPT (sandwich ELISA), dose-response fits",
  "type": "cell-based",
  "from_the_text": "HeLa cells have been transfected using Lipofectamine LTX™ reagent following the manufacturer instructions. The transfection protocol and concentration of pSG5-cDNAwtC99 plasmid have been optimized to achieve desired assay sensitivity, a gradual increase in the substrate expression level, and a smooth transition from biphasic to the standard dose-response curves (Figs. 2–3). Initially concentration of pSG5-cDNAwtC99 plasmid have been optimized by western blots using anti-flag αM2 monoclonal antibody as described in our previous study. The cells were transfected in 24-well plates. The day before transfection the cells were trypsinized and counted. About 0.85×10^5 cells were seeded per well in 0.5 ml of complete growth medium to achieve about 75% confluent cultures on the day of transfection. Before the transfection old medium was removed and replaced with fresh 0.5 ml of complete growth medium. For transfection 5X DNA concentration was diluted in 500 µl of Opti-MEM®I Reduced Serum Media and mixed with 0.7 µl of Lipofectamine LTX™ Reagent. The solution was gently mixed and incubated for 30 minutes at room temperature to form DNA- Lipofectamine LTX™ Reagent complexes. Following the 30 min incubation, 100 µl of the DNA- Lipofectamine LTX™ Reagent complexes was added directly to each well containing cells and mixed gently by rocking the plate back and forth. The cells were incubated at 37°C in a CO2 incubator for 18 hours.\nFresh medium was added 18 hours after the transfection (0.5 ml per well), to prepare the cells for incubation with DAPT [18], [51]. Different concentrations of DAPT were prepared in DMSO, and added to the cells so that the final DMSO concentration in the culture was 0.1% (v/v). DMSO vehicle represents 0 nM DAPT. The cells were incubated with DAPT at given concentrations for 15 hours.\nThe assay linear response is in the range from 6–125 pM of Aβ 1–40. The assays were performed by closely following the manufacturer instructions. […] Each well was filled with 50 µl of the antibody conjugate solution and 50 µl of sample. The Aβ 1–40 standards were supplied by the manufacturer and prepared in parallel with other samples. All of the prepared wells were wrapped in aluminum foil and incubated overnight at 4°C with gentle mixing. The next day each well was washed five times with 300 µl of wash solution. After each […] wash, the wash solution was poured out and the wells were dried by tapping the plates on an absorbing paper. Washed wells were filled with 100 µl of the enzyme conjugate solution, covered, and incubated for 30 min at room temperature with shaking. The washing procedure was repeated once again to remove excess of the enzyme-conjugate. Next 100 µl of the substrate solution was added in each well in dark, and kept for 30 minutes covered at room temperature. The reaction was quenched by adding 50 µl of stop solution to each well, and within 15 min the signal intensity was read by measuring absorption at 450 nm.\nAll experimental results were analyzed using MicroCal Origin 7.0 program, nonlinear regressions, and equations that represent specific mechanism. All results are reported as the best fit value ± standard error with two-sigma confidence intervals shown in square brackets (i.e. x±y [p, q]). Briefly, the standard error indicates random errors (i.e. precision) for each method, while the two sigma confidence intervals indicate the ability of given experimental setup to provide information about specific best-fit parameter. The random error for presented experiments is low, as indicated by a low scatter from the best fit values. The sharp confidence intervals can be obtained by taking a large number of independent data points that cover all segments that define the measured functions. […]",
  "key": {"[1]": {"details": "HeLa, 250 ng/mL pSG5-cDNAwtC99, eqn. 2"}, "[2]": {"details": "HeLa, 400 ng/mL pSG5-cDNAwtC99, eqn. 2"}, "[3]": {"details": "HeLa, 600 ng/mL pSG5-cDNAwtC99, eqn. 2"}, "[4]": {"details": "HeLa, 800 ng/mL pSG5-cDNAwtC99, eqn. 2"}, "[5]": {"details": "average over 0-92 ng/mL pSG5-cDNAwtC99"}, "[6]": {"details": "untransfected HeLa cells, eqn. 1, six free fit parameters"}, "[7]": {"details": "untransfected HeLa cells, eqn. 1 with IA and MI as constants"}, "[8]": {"details": "untransfected HeLa cells, measured separately, taken as constant in regression"}},
  "note": "“And” between values parts separate entries of the source, which are not always exact repeats. Equal values may be shown once. Read-outs that look alike come from different tables or passages of the source. Marks after values point to notes of the source that are not given here.",
  "data": [
    {"smiles": "C[C@H](NC(=O)Cc1cc(F)cc(F)c1)C(=O)N[C@H](C(=O)OC(C)(C)C)c1ccccc1", "note": "[DAPT, N-[N-(3,5-difluorophenacetyl)-L-alanyl]-S-phenylglycine t-butyl ester]", "values": [
      {"measurement": "Maximal Inhibition, MI", "setting": "HeLa, 92 ng/mL pSG5-cDNAwtC99, eqn. 1", "value": "1.9 ± 0.6", "unit": "pM per 10^6 cells"},
      {"measurement": "Initial Activity, IA", "setting": "HeLa, 92 ng/mL pSG5-cDNAwtC99, eqn. 1, activity at zero DAPT", "value": "119 ± 4", "unit": "pM per 10^6 cells"},
      {"measurement": "EC50", "setting": "HeLa, 92 ng/mL pSG5-cDNAwtC99, eqn. 1, read-out: Activation EC50", "value": "178 ± 45", "unit": "nM"},
      {"measurement": "IC50", "setting": "HeLa, 92 ng/mL pSG5-cDNAwtC99, eqn. 1, read-out: Inhibition IC50", "value": "661 ± 80", "unit": "nM"},
      {"measurement": "Inhibition Hill's coef", "setting": "[1]", "value": "1.02 ± 0.07"},
      {"measurement": "Maximal Inhibition, MI", "setting": "[1]", "value": "-0.9 ± 0.4", "unit": "pM per 10^6 cells"},
      {"measurement": "Initial Activity, IA", "setting": "HeLa, 250 ng/mL pSG5-cDNAwtC99, eqn. 2, activity at zero DAPT", "value": "229 ± 4", "unit": "pM per 10^6 cells"},
      {"measurement": "IC50", "setting": "HeLa, 250 ng/mL pSG5-cDNAwtC99, standard dose-response, eqn. 2, read-out: Inhibition IC50", "value": "126 ± 9", "unit": "nM"},
      {"measurement": "Inhibition Hill's coef", "setting": "[2]", "value": "0.95 ± 0.04"},
      {"measurement": "Maximal Inhibition, MI", "setting": "[2]", "value": "2.0 ± 0.9", "unit": "pM per 10^6 cells"},
      {"measurement": "Initial Activity, IA", "setting": "HeLa, 400 ng/mL pSG5-cDNAwtC99, eqn. 2, activity at zero DAPT", "value": "190 ± 2", "unit": "pM per 10^6 cells"},
      {"measurement": "IC50", "setting": "HeLa, 400 ng/mL pSG5-cDNAwtC99, standard dose-response, eqn. 2, read-out: Inhibition IC50", "value": "110 ± 8", "unit": "nM"},
      {"measurement": "Inhibition Hill's coef", "setting": "[3]", "value": "0.84 ± 0.03"},
      {"measurement": "Maximal Inhibition, MI", "setting": "[3]", "value": "-4 ± 2", "unit": "pM per 10^6 cells"},
      {"measurement": "Initial Activity, IA", "setting": "HeLa, 600 ng/mL pSG5-cDNAwtC99, eqn. 2, activity at zero DAPT", "value": "140 ± 4", "unit": "pM per 10^6 cells"},
      {"measurement": "IC50", "setting": "HeLa, 600 ng/mL pSG5-cDNAwtC99, standard dose-response, eqn. 2, read-out: Inhibition IC50", "value": "98 ± 6", "unit": "nM"},
      {"measurement": "Inhibition Hill's coef", "setting": "[4]", "value": "0.61 ± 0.07"},
      {"measurement": "Maximal Inhibition, MI", "setting": "[4]", "value": "2 ± 0.8", "unit": "pM per 10^6 cells"},
      {"measurement": "Initial Activity, IA", "setting": "HeLa, 800 ng/mL pSG5-cDNAwtC99, eqn. 2, activity at zero DAPT", "value": "90 ± 1", "unit": "pM per 10^6 cells"},
      {"measurement": "IC50", "setting": "HeLa, 800 ng/mL pSG5-cDNAwtC99, standard dose-response, eqn. 2, read-out: Inhibition IC50", "value": "89 ± 5", "unit": "nM"},
      {"measurement": "mode of inhibition", "setting": "at saturating C99 substrate", "value": "noncompetitive inhibitor"},
      {"measurement": "Activation Hill coef., average", "setting": "[5]", "value": "1.0 ± 0.1"},
      {"measurement": "Inhibition Hill's coef, average", "setting": "[5]", "value": "2.1±0.2"},
      {"measurement": "Maximal Inhibition, MI, average", "setting": "[5]", "value": "0.5 ± 0.2", "unit": "pM per 10^6 cells"},
      {"measurement": "IC50", "setting": "average over 0-92 ng/mL pSG5-cDNAwtC99 (all biphasic curves), read-out: Inhibition IC50, average", "value": "534 ± 53", "unit": "nM"},
      {"measurement": "EC50", "setting": "average over 0-92 ng/mL pSG5-cDNAwtC99 (all biphasic profiles), read-out: Activation EC50, average", "value": "111 ± 41", "unit": "nM"},
      {"measurement": "Maximal Activity, MA, average", "setting": "average over 0-92 ng/mL pSG5-cDNAwtC99 (biphasic curves)", "value": 189, "unit": "pM per 10^6 cells"},
      {"measurement": "Maximal Inhibition, MI, average", "setting": "average over 250-800 ng/mL pSG5-cDNAwtC99", "value": "-0.5 ± 0.6", "unit": "pM per 10^6 cells"},
      {"measurement": "IC50", "setting": "average over 250-800 ng/mL pSG5-cDNAwtC99 (standard dose-response curves), read-out: Inhibition IC50, average", "value": "106 ± 16", "unit": "nM"},
      {"measurement": "potential to activate γ-secretase activity (MA vs. IA)", "setting": "if binding only at the activation site, 31 pM vs. 196 pM Aβ 1–40 per 10^6 cells", "value": "~7", "unit": "fold"},
      {"measurement": "cDNAwtC99 required to reach activation by DAPT", "setting": "transfection without DAPT giving same Aβ 1-40 secretion as endogenous substrate at 33 nM DAPT", "value": 70, "unit": "ng/mL"},
      {"measurement": "cDNAwtC99 required to reach activation by DAPT", "setting": "transfection without DAPT giving same Aβ 1-40 secretion as endogenous substrate at 100 nM DAPT", "value": 120, "unit": "ng/mL"},
      {"measurement": "cDNAwtC99 required to reach activation by DAPT", "setting": "transfection without DAPT giving same Aβ 1-40 secretion as endogenous substrate at 333 nM DAPT", "value": 118, "unit": "ng/mL"},
      {"measurement": "cDNAwtC99 required to reach activation by DAPT", "setting": "transfection without DAPT giving same Aβ 1-40 secretion as endogenous substrate at 500 nM DAPT", "value": 100, "unit": "ng/mL"},
      {"measurement": "cDNAwtC99 required to reach activation by DAPT", "setting": "transfection without DAPT giving same Aβ 1-40 secretion as endogenous substrate at 1000 nM DAPT", "value": 16, "unit": "ng/mL"},
      {"measurement": "activity on Endogenous substrate (Aβ 1-40 secreted)", "setting": "untransfected HeLa cells, 33 nM DAPT", "value": 81.1, "unit": "pM per 10^6 cells"},
      {"measurement": "activity on Endogenous substrate (Aβ 1-40 secreted)", "setting": "untransfected HeLa cells, 100 nM DAPT", "value": "132 pM per 10^6 cells and 132.0 pM per 10^6 cells"},
      {"measurement": "activity on Endogenous substrate (Aβ 1-40 secreted)", "setting": "untransfected HeLa cells, 333 nM DAPT", "value": 129.0, "unit": "pM per 10^6 cells"},
      {"measurement": "activity on Endogenous substrate (Aβ 1-40 secreted)", "setting": "untransfected HeLa cells, 500 nM DAPT", "value": 111.6, "unit": "pM per 10^6 cells"},
      {"measurement": "activity on Endogenous substrate (Aβ 1-40 secreted)", "setting": "untransfected HeLa cells, 1000 nM DAPT", "value": 43.0, "unit": "pM per 10^6 cells"},
      {"measurement": "observed maximal activity, Aβ 1–40 secreted", "setting": "untransfected HeLa cells, at 108 nM DAPT", "value": 145, "unit": "pM per 10^6 cells"},
      {"measurement": "Activation Hill's coef", "setting": "[6]", "value": "1.09 ± 0.4"},
      {"measurement": "Inhibition Hill's coef", "setting": "[6]", "value": "1.9±0.5 and 1.92 ± 0.5"},
      {"measurement": "Activation Hill's coef", "setting": "[7]", "value": "1.09 ± 0.16"},
      {"measurement": "Inhibition Hill's coef", "setting": "[7]", "value": "1.92 ± 0.25"},
      {"measurement": "Maximal Activity, MA", "setting": "[7]", "value": "196 ± 35", "unit": "pM per 10^6 cells"},
      {"measurement": "EC50", "setting": "untransfected HeLa cells, eqn. 1 with IA and MI as constants, read-out: Activation EC50", "value": "72 ± 9", "unit": "nM"},
      {"measurement": "IC50", "setting": "untransfected HeLa cells, eqn. 1 with IA and MI as constants, read-out: Inhibition IC50", "value": "472 ± 35", "unit": "nM"},
      {"measurement": "Initial Activity, IA", "setting": "[8]", "value": "31 ^c pM per 10^6 cells"},
      {"measurement": "Maximal Inhibition, MI", "setting": "[8]", "value": "0 ^c pM per 10^6 cells"},
      {"measurement": "DAPT concentration at which maximal activity is observed", "setting": "untransfected HeLa cells, peak of biphasic curve", "value": 108, "unit": "nM"}
    ]}
  ]
}
